Results from patent US6387848B1, “Non-aqueous concentrated spreading oil composition” (priority 2000, dated 2002).
Read-outs that look alike come from different tables or passages of the source.

Key:
Pyricularia oryzae [1] = type: in vivo; conditions: added to the water, 126 day after treatment
Pyricularia oryzae [2] = type: in vivo; conditions: added to the water, 52 days after treatment
[3] = Granules 50 g/kg, dose 100 g/ha
[4] = Granules 50 g/kg, dose 250 g/ha
[5] = Granules 50 g/kg, dose 500 g/ha
[6] = Granules 50 g/kg, dose 1000 g/ha
[7] = SO 30 g/L (Example 1), dose 50 g/ha
[8] = SO 30 g/L (Example 1), dose 100 g/ha
[9] = SO 30 g/L (Example 1), dose 250 g/ha
[10] = SO 30 g/L (Example 1), dose 500 g/ha
[11] = SO 30 g/L (Example 1), dose 1000 g/ha

Compound: C[C@H](Nc1c(-c2c(F)cc(F)cc2F)c(Cl)nc2ncnn12)C(F)(F)F [(S)-Azolopyrimidine C, 5-chloro-6-(2,4,6-trifluorophenyl)-7-(1,1,1-trifluoroprop-2-ylamino)-[1,2,4]triazolo[1,5-a]pyrimidine]
- Percent rice danicle blast control, control (%) (Pyricularia oryzae [1]; [3]): 39%
- Percent rice danicle blast control, control (%) (Pyricularia oryzae [1]; [4]): 44%
- Percent rice danicle blast control, control (%) (Pyricularia oryzae [1]; [5]): 67%
- Percent rice danicle blast control, control (%) (Pyricularia oryzae [1]; [6]): 82%
- Percent rice danicle blast control, control (%) (Pyricularia oryzae [1]; [7]): 22%
- Percent rice danicle blast control, control (%) (Pyricularia oryzae [1]; [8]): 44%
- Percent rice danicle blast control, control (%) (Pyricularia oryzae [1]; [9]): 67%
- Percent rice danicle blast control, control (%) (Pyricularia oryzae [1]; [10]): 78%
- Percent rice danicle blast control, control (%) (Pyricularia oryzae [1]; [11]): 84%
- Percent rice leaf blast control, control (%) (Pyricularia oryzae [2]; [3]): 78%
- Percent rice leaf blast control, control (%) (Pyricularia oryzae [2]; [4]): 86%
- Percent rice leaf blast control, control (%) (Pyricularia oryzae [2]; [5]): 90%
- Percent rice leaf blast control, control (%) (Pyricularia oryzae [2]; [6]): 95%
- Percent rice leaf blast control, control (%) (Pyricularia oryzae [2]; Granules 50 g/kg, dose 1500 g/ha): 97%
- Percent rice leaf blast control, control (%) (Pyricularia oryzae [2]; [7]): 84%
- Percent rice leaf blast control, control (%) (Pyricularia oryzae [2]; [8]): 89%
- Percent rice leaf blast control, control (%) (Pyricularia oryzae [2]; [9]): 95%
- Percent rice leaf blast control, control (%) (Pyricularia oryzae [2]; [10]): 97%
- Percent rice leaf blast control, control (%) (Pyricularia oryzae [2]; [11]): 98%
